The values that follow come from PubChem BioAssay AID296 (DTP/NCI, 2004).

Values joined by “and” are separate entries in the source; they are usually repeats but may differ in a detail not shown here. Equal entries are not always repeated. Records with an inconclusive call do not appear.

For this assay, the system named is MX-1 breast xenograft, nude mice, tumor weight T/C. The experiment in a line: NCI In Vivo Anticancer Drug Screen. Data for tumor model Human Mammary Carcinoma MX-1 Xenograft (intrarenal inoculation) in NU/NU Swiss (nude) mice. Particulars: endpoint: mean tumor weight change, higher = larger tumour. A digest of the protocol:
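Compound dosed to mice with transplantable tumor; vehicle group as control. Endpoint survival or tumour size, reported as T/C.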

The mark [1] stands for this setting: dose: 6.25 mg/kg/injection, schedule: Q04DX003 (sc), vehicle: saline with Tween-80.
Setting [2] is: dose: 150.0 mg/kg/injection, schedule: Q04DX003 (sc), vehicle: saline.
[3] abbreviates: dose: 300.0 mg/kg/injection, schedule: Q04DX003 (sc), vehicle: saline.
[4] abbreviates: dose: 300.0 mg/kg/injection, schedule: Q04DX003 (sc), vehicle: Klucel (hydroxypropylcellulose) (HPC).
The mark [5] stands for this setting: dose: 600.0 mg/kg/injection, schedule: Q04DX003 (sc), vehicle: Klucel (hydroxypropylcellulose) (HPC).
Setting [6] is: dose: 1200.0 mg/kg/injection, schedule: Q04DX003 (sc), vehicle: Klucel (hydroxypropylcellulose) (HPC).
[7] abbreviates: dose: 2400.0 mg/kg/injection, schedule: Q04DX003 (sc), vehicle: Klucel (hydroxypropylcellulose) (HPC).
[8] abbreviates: dose: 300.0 mg/kg/injection, schedule: Q04DX003 (sc), vehicle: saline with Tween-80.
The mark [9] stands for this setting: dose: 600.0 mg/kg/injection, schedule: Q04DX003 (sc), vehicle: saline with Tween-80.
Setting [10] is: dose: 1200.0 mg/kg/injection, schedule: Q04DX003 (sc), vehicle: saline with Tween-80.

Take `O=C1C=C[C@H](O)[C@@]2(CO)O[C@@H]12`: the T/C runs as follows: (dose: 3.12 mg/kg/injection, schedule: Q04DX003 (sc), vehicle: saline with Tween-80) 106 % of control; under setting [1], 85 % of control.
As to `COC1CC(C)C(OC)C2=CC(=O)C=C(NC(=O)/C(C)=C/C=C\C(C)C(OC(N)=O)/C(C)=C\C(C)C1OC)C2=O` (configuration not stated), the T/C (dose: 12.5 mg/kg/injection, schedule: Q04DX003 (sc), vehicle: saline + alcohol) is 81 % of control and the T/C (dose: 25.0 mg/kg/injection, schedule: Q04DX003 (sc), vehicle: saline + alcohol) is 97 % of control.
In the case of `CCOC(=O)Nc1cc2c(c(N)n1)N=C(c1ccccc1)CN2`, the T/C is, setting by setting: under setting [1], 80 % of control; (dose: 12.5 mg/kg/injection, schedule: Q04DX003 (sc), vehicle: saline with Tween-80) 83 % of control; (dose: 25.0 mg/kg/injection, schedule: Q04DX003 (sc), vehicle: saline with Tween-80) 68 % of control.
`C=C1c2cccc(O)c2C(O)=C2C(=O)[C@]3(O)C(O)=C(C(N)=O)C(=O)[C@@H](N(C)C)[C@@H]3[C@@H](O)[C@H]12`: the T/C reads like this: (dose: 75.0 mg/kg/injection, schedule: Q04DX003 (ip), vehicle: Klucel (hydroxypropylcellulose) (HPC)) 89 % of control; (dose: 150.0 mg/kg/injection, schedule: Q04DX003 (ip), vehicle: Klucel (hydroxypropylcellulose) (HPC)) 74 % of control; (dose: 300.0 mg/kg/injection, schedule: Q04DX003 (ip), vehicle: Klucel (hydroxypropylcellulose) (HPC)) 58 % of control.
Consider `O=CC(=O)c1ccc(O)cc1`, for which the T/C is, setting by setting: under setting [2], 95 % of control; under setting [3], 69 % of control.
As to `CSc1ncc2ncn(C3OC(CO)C(O)C3O)c2n1` (configuration not stated), the T/C was 56 % of control under setting [4], 59 % of control under setting [5], 37 % of control under setting [6] and 68 % of control under setting [7].
Regarding `c1ccc([C@H]2CN3CCSC3=N2)cc1`, the T/C was 80 % of control (dose: 15.0 mg/kg/injection, schedule: Q04DX003 (sc), vehicle: saline); 71 % of control (dose: 30.0 mg/kg/injection, schedule: Q04DX003 (sc), vehicle: saline); 75 % of control (dose: 60.0 mg/kg/injection, schedule: Q04DX003 (sc), vehicle: saline).
On to `Oc1c(Cl)cc(C(c2cc(Cl)c(O)c(Cl)c2)C(c2cc(Cl)c(O)c(Cl)c2)c2cc(Cl)c(O)c(Cl)c2)cc1Cl`, for which the T/C under setting [4] was 108 % of control, the T/C under setting [5] is 79 % of control, the T/C under setting [6] is 73 % of control and the T/C under setting [7] is 88 % of control.
In the case of `COC1CC2C=C(C)/C=C/C=C/C(=O)NC(c3ccccc3)C/C=C/CCC(O)CC(=O)C2=C1O` (configuration not stated), the T/C (dose: 75.0 mg/kg/injection, schedule: Q04DX003 (sc), vehicle: Klucel (hydroxypropylcellulose) (HPC)) was 41 % of control; the T/C (dose: 150.0 mg/kg/injection, schedule: Q04DX003 (sc), vehicle: Klucel (hydroxypropylcellulose) (HPC)) was 71 % of control; the T/C under setting [4] was 50 % of control.
For `O=[N+]([O-])/C=C\c1ccc2c(c1)OCO2`, the T/C runs as follows: (dose: 50.0 mg/kg/injection, schedule: Q01DX010 (sc), vehicle: Klucel (hydroxypropylcellulose) (HPC)) 214 % of control; (dose: 100.0 mg/kg/injection, schedule: Q01DX010 (sc), vehicle: Klucel (hydroxypropylcellulose) (HPC)) 91 % of control; (dose: 400.0 mg/kg/injection, schedule: Q01DX010 (sc), vehicle: Klucel (hydroxypropylcellulose) (HPC)) 86 % of control.
For the molecule `COC(=O)c1ccoc1`, the T/C under setting [2] is 123 % of control; the T/C under setting [3] is 89 % of control; the T/C (dose: 600.0 mg/kg/injection, schedule: Q04DX003 (sc), vehicle: saline) was 66 % of control.
Regarding `COc1ccc(S(=O)(=O)N=N/C=C2\C=CC=CN2O)cc1OC`, the T/C is 81 % of control (dose: 37.5 mg/kg/injection, schedule: Q04DX003 (sc), vehicle: saline with Tween-80); 61 % of control (dose: 75.0 mg/kg/injection, schedule: Q04DX003 (sc), vehicle: saline with Tween-80); 47 % of control (dose: 150.0 mg/kg/injection, schedule: Q04DX003 (sc), vehicle: saline with Tween-80); 64 % of control under setting [8].
Regarding `O=C1c2ccccc2C(=O)c2c(NCCNCCO)ccc(O)c21`, the T/C reads like this: (dose: 25.0 mg/kg/injection, schedule: Q04DX003 (sc), vehicle: suspension in saline) 95 % of control; (dose: 50.0 mg/kg/injection, schedule: Q04DX003 (sc), vehicle: saline) 92 % of control; (dose: 100.0 mg/kg/injection, schedule: Q04DX003 (sc), vehicle: saline) 69 % of control; (dose: 100.0 mg/kg/injection, schedule: Q04DX003 (sc), vehicle: suspension in saline) 69 % of control and 78 % of control; (dose: 200.0 mg/kg/injection, schedule: Q04DX003 (sc), vehicle: saline) 63 % of control; (dose: 200.0 mg/kg/injection, schedule: Q04DX003 (sc), vehicle: suspension in saline) 78 % of control. The T/C (dose: 400.0 mg/kg/injection, schedule: Q04DX003 (sc), vehicle: saline) is 37 % of control and the T/C (dose: 400.0 mg/kg/injection, schedule: Q04DX003 (sc), vehicle: suspension in saline) was 98 % of control.
In the case of `O=S1(=O)C=C(c2ccccc2)C(c2ccccc2)=C1`, the T/C under setting [8] is 80 % of control; the T/C under setting [9] was 71 % of control; the T/C under setting [10] is 83 % of control; the T/C (dose: 2400.0 mg/kg/injection, schedule: Q04DX003 (sc), vehicle: saline with Tween-80) was 74 % of control.
`Nc1ccc2c(c1)CN1C(=O)c3ccccc3C1=N2`: the T/C was 203 % of control under setting [8], 168 % of control under setting [9] and 76 % of control under setting [10].
Turning to `CCC(C(=O)O)C(=O)O.[NH2-].[NH2-].[Pt+2]`, the T/C (dose: 75.0 mg/kg/injection, schedule: Q04DX003 (sc), vehicle: saline) is -95 % of control; the T/C under setting [2] is -82 % of control; the T/C under setting [3] was -99 % of control.
`C[PH+](C)C.C[PH+](C)C.[Au]`: the T/C (dose: 5.0 mg/kg/injection, schedule: Q04DX003 (sc), vehicle: suspension in saline) is 157 % of control; the T/C (dose: 10.0 mg/kg/injection, schedule: Q04DX003 (sc), vehicle: suspension in saline) is 156 % of control; the T/C (dose: 20.0 mg/kg/injection, schedule: Q04DX003 (sc), vehicle: suspension in saline) was 160 % of control.
With `C[C@H](CCC[C@H](C)OS(=O)(=O)c1ccccc1)OS(=O)(=O)c1ccccc1`, the T/C is 92 % of control under setting [8] and 48 % of control under setting [9].
Consider `CN(C)c1ccc(C(=C2C=CC(=[N+](C)C)C=C2)c2ccc(N(C)C)cc2)cc1` (tested in a mixture with another compound), for which the T/C reads like this: (dose: 15.0 mg/kg/injection, schedule: Q04DX003 (sc), vehicle: saline with Tween-80) 70 % of control; (dose: 30.0 mg/kg/injection, schedule: Q04DX003 (sc), vehicle: saline with Tween-80) 104 % of control; (dose: 60.0 mg/kg/injection, schedule: Q04DX003 (sc), vehicle: saline with Tween-80) 97 % of control; (dose: 120.0 mg/kg/injection, schedule: Q04DX003 (sc), vehicle: saline with Tween-80) 82 % of control.
As for `C[C@]12C=CC(=O)C=C1CC[C@@H]1[C@@H]2C(=O)C[C@@]2(C)[C@H]1CC[C@]2(O)C(=O)CO`, the T/C runs as follows: under setting [4], 40 % of control; under setting [5], 73 % of control; under setting [6], 44 % of control; under setting [7], 29 % of control.
